From patent publication US5246926A, “Cephalosporin derivatives” (Beecham Group p.l.c., priority 1989, dated 1993) come the findings set out here.

One experiment deals with S. aureus (Oxford). Description: In vitro antibacterial activity, M.I.C. against S. aureus. The format is cell-based. The conditions noted are these: Staphylococcus aureus.
The next experiment relates to E. coli (NCTC 10418). Nature of the experiment: In vitro antibacterial activity, M.I.C. against E. coli. Format: cell-based. Conditions: Escherichia coli, NCTC10418.

SMILES strings stand for the structures. ≈ marks a conversion by molar mass, not a printed value.

As to `CO/N=C(\C(=O)N[C@@H]1C(=O)N2C(C(=O)O)=C(C3CCC(=O)O3)CS[C@H]12)c1csc(N)n1` (mixture of isomers) [Example 3, Sodium (6R,7R)-7-[2-(2-Aminothiazol-4-yl)-2-(Z)-methoxyiminoacetamido]-3-[(5RS)-2-oxotetrahydrofuran-5-yl]ceph-3-em-4-carboxylate], the MIC – broadly, the smallest concentration in the dilution series that meets the test's criterion for growth inhibition – against S. aureus (Oxford) was 1 µg/mL; in the experiment with E. coli (NCTC 10418) it was below 0.03 µg/mL.

Consider `Nc1nc(/C(=N/O)C(=O)N[C@@H]2C(=O)N3C(C(=O)O)=C(C4CCC(=O)O4)CS[C@H]23)cs1` (mixture of isomers) [Example 5, (6R,7R)-7-[2-(2-Aminothiazol-4-yl)-2-(Z)-hydroxyiminoacetamido]-3-[(5RS)-2-oxotetrahydrofuran-5-yl)ceph-3-em-4-carboxylic acid], for which the MIC in the experiment with S. aureus (Oxford) is 0.25 µg/mL; in the experiment with E. coli (NCTC 10418), below 0.03 µg/mL.

Consider `CO/N=C(\C(=O)N[C@@H]1C(=O)N2C(C(=O)[O-])=C(C3CCOC3=O)CS[C@H]12)c1csc(N)n1.[Na+]` (mixture of isomers) [Example 15, Sodium (6R,7R)-7-[2-(2-aminothiazol-4-yl)-2-(Z)-methoxyiminoacetamido]-3-[(3RS)-2-oxotetrahydrofuran-3-yl]ceph-3-em-4-carboxylate], for which the MIC against S. aureus (Oxford) was found to be 4 µg/mL; with E. coli (NCTC 10418), 0.25 µg/mL.

Turning to `CO/N=C(\C(=O)N[C@@H]1C(=O)N2C(C(=O)O)=C(C3COC(=O)C3)CS[C@H]12)c1csc(N)n1` (stereo partly shown) [Example 8], the MIC with S. aureus (Oxford) came to 4 µg/mL (≈ 8.56 µM); in the experiment on E. coli (NCTC 10418), 32 µg/mL (≈ 68.5 µM).

Take `Nc1nc(/C(=N/OCC(=O)O)C(=O)N[C@@H]2C(=O)N3C(C(=O)O)=C(C4CCC(=O)O4)CS[C@H]23)cs1` (stereo partly shown) [Example 10]: the results for the MIC in the experiment on S. aureus (Oxford) and in the experiment with E. coli (NCTC 10418) were 8 µg/mL (≈ 15.6 µM) and 0.12 µg/mL (≈ 0.235 µM), respectively.
